Assay: mn = molality of the nth substance listed, in mol/kg
Conditions: 101 kPa, Liquid; for electrical conductivity: Frequency=0.001 MHz, Alternating current cell with electrodes; for speed of sound: Frequency=2 MHz; for mass density: Pycnometric method

O=[N+]([O-])[O-].O=[N+]([O-])[O-].[Mg+2] [magnesium nitrate] + CO
Conditions	electrical conductivity [S/m]	mass density [kg/m3]	speed of sound [m/s]	viscosity [mPa·s]
273.15 K, m1 = 0.0082	0.1095	–	1187.6	0.8298
273.15 K, m1 = 0.0545	0.3036	–	1194.3	0.8885
273.15 K, m1 = 0.0667	0.3337	–	1197.6	0.9109
273.15 K, m1 = 0.1047	0.4393	–	1202.4	0.9548
273.15 K, m1 = 0.2776	0.8097	–	1220.4	1.129
273.15 K, m1 = 0.4024	1.002	–	1228.8	1.336
273.15 K, m1 = 0.4555	1.043	–	1237	1.4
273.15 K, m1 = 0.6276	1.207	–	1253.3	1.836
273.15 K, m1 = 0.782	1.31	–	1270.9	2.128
273.15 K, m1 = 0.881	1.334	–	1274.9	2.18
273.15 K, m1 = 0.9116	1.344	–	1279.9	2.329
273.15 K, m1 = 1.004	1.372	–	1293.4	2.559
273.15 K, m1 = 1.259	1.361	–	1315.8	3.717
273.15 K, m1 = 1.492	1.314	–	1340.4	4.748
273.15 K, m1 = 1.71	1.281	–	1360.5	6.086
273.15 K, m1 = 1.875	1.238	–	1368.6	7.175
278.15 K, m1 = 0.0082	0.1165	–	1171.2	0.7627
278.15 K, m1 = 0.0545	0.321	–	1178.6	0.8108
278.15 K, m1 = 0.0667	0.3538	–	1181.3	0.836
278.15 K, m1 = 0.1047	0.4655	–	1185.8	0.8755
278.15 K, m1 = 0.2776	0.8637	–	1203	1.029
278.15 K, m1 = 0.4024	1.073	–	1214.1	1.213
278.15 K, m1 = 0.4555	1.117	–	1222.1	1.273
278.15 K, m1 = 0.6276	1.3	–	1235.6	1.732
278.15 K, m1 = 0.782	1.417	–	1254.4	1.905
278.15 K, m1 = 0.881	1.447	–	1257.8	1.938
278.15 K, m1 = 0.9116	1.459	–	1263.2	2.079
278.15 K, m1 = 1.004	1.494	–	1277.2	2.278
278.15 K, m1 = 1.259	1.494	–	1298.8	3.26
278.15 K, m1 = 1.492	1.453	–	1324.8	4.119
278.15 K, m1 = 1.71	1.436	–	1343.7	5.244
278.15 K, m1 = 1.875	1.383	–	1352.5	6.178
283.15 K, m1 = 0.0082	0.1221	–	1158.5	0.7006
283.15 K, m1 = 0.0545	0.3368	–	1163.6	0.7465
283.15 K, m1 = 0.0667	0.3738	–	1164.3	0.775
283.15 K, m1 = 0.1047	0.4908	–	1168.9	0.8049
283.15 K, m1 = 0.2776	0.9168	–	1187.4	0.9437
283.15 K, m1 = 0.4024	1.143	–	1198.4	1.109
283.15 K, m1 = 0.4555	1.192	–	1204.7	1.158
283.15 K, m1 = 0.6276	1.394	–	1219.1	1.562
283.15 K, m1 = 0.782	1.528	–	1238.3	1.719
283.15 K, m1 = 0.881	1.561	–	1241	1.743
283.15 K, m1 = 0.9116	1.573	–	1247.8	1.866
283.15 K, m1 = 1.004	1.618	–	1261.1	2.041
283.15 K, m1 = 1.259	1.632	–	1282.7	2.891
283.15 K, m1 = 1.492	1.597	–	1308.1	3.619
283.15 K, m1 = 1.71	1.59	–	1327.3	4.554
283.15 K, m1 = 1.875	1.538	–	1335.4	5.339
288.15 K, m1 = 0.0082	0.1281	–	1141.9	0.6479
288.15 K, m1 = 0.0545	0.3616	–	1145.7	0.69
288.15 K, m1 = 0.0667	0.393	–	1147.2	0.7149
288.15 K, m1 = 0.1047	0.5164	–	1152.3	0.743
288.15 K, m1 = 0.2776	0.9691	–	1170.8	0.8665
288.15 K, m1 = 0.4024	1.214	–	1182.6	1.016
288.15 K, m1 = 0.4555	1.267	–	1188.5	1.06
288.15 K, m1 = 0.6276	1.489	–	1203	1.408
288.15 K, m1 = 0.782	1.639	–	1221.6	1.556
288.15 K, m1 = 0.881	1.678	–	1225.4	1.575
288.15 K, m1 = 0.9116	1.69	–	1231.2	1.679
288.15 K, m1 = 1.004	1.744	–	1245.4	1.828
288.15 K, m1 = 1.259	1.772	–	1266.8	2.586
288.15 K, m1 = 1.492	1.746	–	1292.2	3.198
288.15 K, m1 = 1.71	1.738	–	1311.9	3.978
288.15 K, m1 = 1.875	1.698	–	1320.1	4.642
293.15 K, m1 = 0.0082	0.1341	–	1123.3	0.6014
293.15 K, m1 = 0.0545	0.3807	–	1129	0.6412
293.15 K, m1 = 0.0667	0.412	–	1130.5	0.6621
293.15 K, m1 = 0.1047	0.5415	–	1134.7	0.6872
293.15 K, m1 = 0.2776	1.021	–	1154.7	0.7989
293.15 K, m1 = 0.4024	1.277	–	1165.8	0.9313
293.15 K, m1 = 0.4555	1.341	–	1172.6	0.9778
293.15 K, m1 = 0.6276	1.584	–	1187.3	1.271
293.15 K, m1 = 0.782	1.752	–	1205.7	1.415
293.15 K, m1 = 0.881	1.797	–	1212	1.429
293.15 K, m1 = 0.9116	1.811	–	1215.2	1.517
293.15 K, m1 = 1.004	1.873	–	1229.3	1.65
293.15 K, m1 = 1.259	1.917	–	1250.2	2.306
293.15 K, m1 = 1.492	1.9	–	1275.7	2.833
293.15 K, m1 = 1.71	1.902	–	1295.5	3.5
293.15 K, m1 = 1.875	1.866	–	1304	4.058
298.15 K, m1 = 0.0082	0.1401	–	1108.5	0.5595
298.15 K, m1 = 0.0545	0.3953	–	1115.7	0.5957
298.15 K, m1 = 0.0667	0.4305	–	1113.6	0.6148
298.15 K, m1 = 0.1047	0.5657	–	1118.5	0.6361
298.15 K, m1 = 0.2776	1.073	–	1138.2	0.7381
298.15 K, m1 = 0.4024	1.343	–	1149	0.8609
298.15 K, m1 = 0.4555	1.416	–	1155.9	0.8966
298.15 K, m1 = 0.6276	1.68	–	1171.1	1.146
298.15 K, m1 = 0.782	1.866	–	1188.8	1.287
298.15 K, m1 = 0.881	1.918	–	1195.8	1.301
298.15 K, m1 = 0.9116	1.933	–	1198.8	1.369
298.15 K, m1 = 1.004	2.005	–	1212.9	1.491
298.15 K, m1 = 1.259	2.065	–	1232.2	2.078
298.15 K, m1 = 1.492	2.06	–	1259.5	2.541
298.15 K, m1 = 1.71	2.073	–	1279.9	3.094
298.15 K, m1 = 1.875	2.039	–	1288.1	3.556
300.6 K, m1 = 0.1047	–	798.24	–	–
300.7 K, m1 = 0.6276	–	850.07	–	–
300.8 K, m1 = 0.881	–	871.54	–	–
301.1 K, m1 = 1.492	–	934.05	–	–

— the NIST ThermoML archive (doi:10.1021/je800463k)
